# Legend:
# H3K9 acetylation = H3K9 acetylation Western blot in human NPCs and neurons; assay type: cell-based; settings: ACY-1215 5 μM, tubastatin A 10 μM, CI-994 10 μM, Cpd-60 5 μM (Figure S1)
# HDAC = settings: ref Schroeder et al., 2013; Chou et al., 2008; cited from earlier work
# FXN mRNA = test: FXN; assay type: cell-based, human; settings: 18-day neurons, 24 h; SAHA 10 μM, CI-994 10 μM, Cpd-60 5 μM
# [1] = test system: H3K27 acetylation on GRN promoter; test: H3K27 acetylation ChIP-qPCR on GRN promoter/enhancer region in NPCs; assay type: cell-based, human; settings: 24 hours, panobinostat 0.5 μM, CI-994 10 μM; for H3K27 acetylation in ChIP Region 3: to varying levels
# GRN mRNA = GRN mRNA expression by qPCR in human iPSC-derived NPCs and neurons; assay type: cell-based
# MSR293 cells = test: GRN mRNA / PGRN expression in MSR293 cells; assay type: cell-based, human; settings: MSR293 cells (HEK293 derivative), Figure S3
# PGRN protein = assay type: cell-based, human
# [2] = test system: recombinant human Class I HDACs (HDAC1, HDAC2, HDAC3); test: In vitro HDAC enzymatic assay with varied pre-incubation time; assay type: biochemical; settings: pre-incubation 0–3 hours, Figure S5
# [3] = 2010, cited from earlier work
# [4] = human NPCs, CI-994 for up to 72 hours
# [5] = human neurons, CI-994 10 μM, 24 h
smiles,measurement,setting,value
O=C(CCCCCCNC(=O)c1cnc(N(c2ccccc2)c2ccccc2)nc1)NO [ACY-1215],H3K9 acetylation,H3K9 acetylation,as strong of an induction
CC(=O)Nc1ccc(C(=O)Nc2ccccc2N)cc1 [CI-994],"binding kinetics, mechanism of action",HDAC,slow-on/slow-off
same,FXN (frataxin) mRNA levels,FXN mRNA,significantly increased
same,H3K27 acetylation in ChIP Region 2,[1],Neither compound treatment increased
same,H3K27 acetylation in ChIP Region 3,[1],increased
same,H3K9 acetylation,H3K9 acetylation,significantly increase
same,"GRN mRNA levels, extended treatment",GRN mRNA; [4],did not significnatly enhance
same,GRN mRNA,GRN mRNA; [5],statistically significant decrease
same,upregulating GRN mRNA or PGRN,MSR293 cells,ineffective
same,intracellular PGRN,"PGRN protein; NPCs, CI-994 10 μM, 24 h",decrease
same,secreted PGRN,"PGRN protein; NPCs, CI-994 10 μM, 24 h",decrease
same,"PGRN secreted protein expression, longer treatment times","PGRN protein; NPCs, CI-994 10 μM, longer treatment times, vs vehicle",decreased
same,"PGRN protein levels, extended treatment",PGRN protein; [4],did not significnatly enhance
same,intracellular PGRN protein,PGRN protein; [5],statistically significant decrease
same,change of potency with prolonged incubation (in vitro kinetic profile),[2],slow-binder
O=C(CCCCCCC(=O)Nc1ccccc1)NO [SAHA],FXN (frataxin) mRNA levels,FXN mRNA,does not
same,upregulating GRN mRNA or PGRN,MSR293 cells,effective
O=C(NCC1(c2nc(-c3ccccc3)cs2)CCOCC1)c1cccc(-c2noc(C(F)(F)F)n2)c1 [TMP269],increasing GRN mRNA in NPCs,GRN mRNA; NPCs only (Figure S2),not effective
CN1CCc2c(c3ccccc3n2Cc2ccc(C(=O)NO)cc2)C1 [Tubastatin A],H3K9 acetylation,H3K9 acetylation,robust effect
CCC(=O)CCCCC[C@@H]1NC(=O)[C@H]2CCCCN2C(=O)[C@H]([C@@H](C)CC)NC(=O)[C@H](Cc2cn(OC)c3ccccc23)NC1=O [apicidin],change of potency with prolonged incubation (in vitro kinetic profile),[2],did not increase
Cc1[nH]c2ccccc2c1CCNCc1ccc(/C=C/C(=O)NO)cc1 [panobinostat],H3K27 acetylation in ChIP Region 1 on the GRN promoter,[1],significantly increased
same,H3K27 acetylation in ChIP Region 2,[1],Neither compound treatment increased
same,H3K27 acetylation in ChIP Region 3,[1],increased
"CCCC(CCC)C(=O)O [valproate, valproic acid]",increase of PGRN protein expression compared to vehicle,"PGRN protein; cultured NPCs and neurons, valproate at doses lower than 1 mM (Figure S8)",1.3–1.5 ×
same,serum concentration,"[3]; chronic treatment, ref Kalu",300 to 700 µM
same,Cmax,"[3]; read-out: brain concentration Cmax, estimated, ref Goldenberg",400 µM
same,change of potency with prolonged incubation (in vitro kinetic profile),[2],did not increase

# From paper PMC5695697 (Cell chemical biology, 2017)
